Active and inactive are the calls of the source. The rule behind the calls is not given here.
What was measured:
SH-SY5Y [1] = assay: Induction of glutathione in human SH-SY5Y cells at 100 uM incubated for 24 hrs by GSH/GSSG Glo assay; type: functional
[2] = Toxicity against human SH-SY5Y cells at 100 uM incubated for 24 hrs; type: cell-based
[3] = Neuroprotection against 50 uM 6-hydroxydopamine-induced neurotoxicity in human SH-SY5Y cells assessed as cell viability at 100 uM pre-incubated for 24 hrs before 6-hydroxydopamine challenge; type: functional
[4] = (§1) Neuroprotection against 25 uM 6-hydroxydopamine-induced neurotoxicity in human SH-SY5Y cells assessed as cell viability at 100 uM pre-incubated for 24 hrs before 6-hydroxydopamine challenge; type: functional
SH-SY5Y [5] = assay: as §1; type: functional

| SMILES | Activity (SH-SY5Y [1]) | Activity [2] | Activity [3] | Activity [4] | Activity (SH-SY5Y [5]) |
| --- | --- | --- | --- | --- | --- |
| Oc1ccc(-c2cc(=S)ss2)cc1 | inactive | – | – | – | – |
| FC(F)(F)Cc1cssc1=S | Active | – | – | – | – |
| S=c1cc(C2CC2)ss1 | Active | – | – | – | – |
| S=c1ssc2c1CCCC2 | 98% | – | – | – | – |
| COc1ccc(-c2cc(=S)ss2)cc1 | inactive | – | – | – | – |
| S=c1ccss1 [DITHIOLETHIONE] | 215% | Non-toxic | 47% | 52% | – |
| COc1ccc(-c2cssc2=S)cc1 | Active | – | – | – | – |
| S=c1sscc1-c1ccc(Cl)cc1 | Active | – | – | – | – |
| Cc1ssc(=S)c1Cl | 175% | Non-toxic | 33% | 52% | – |
| S=c1cc(-c2ccc(Cl)cc2)ss1 | inactive | – | – | – | inactive |
| S=c1ssc2c1CCC2 | 183% | Non-toxic | 22% | 41% | – |
| S=c1sscc1-c1ccccc1 | Active | – | – | – | – |
| CCc1cc(=S)ss1 | Active | – | – | – | – |
